Data published in US12422427B2, “Compounds for treatment of diseases and methods of screening therefor” (Max-Planck-Gesellschaft zur Förderung der Wissenschaften …, priority 2018, dated 2025).

Assays:
KIN-19 = type: in vivo, Caenorhabditis elegans; conditions: 1.5 mM
Procedure: The effect of lipoic acid on stress granule protein aggregation in vivo was analysed using a C. elegans model for stress granule formation and aggregation. As previously described, fluorescent-tagged PAB-1 forms abundant stress granules and large solid aggregates during aging or upon chronic stress. RHO-1 and KIN-19 also aggregate during aging, but are not RNA binding or stress granule proteins. Three lines were used: Fluorescently tagged PAB-1 (DCD214: N2; uqIs24[pmyo-2::tagrfp::pab 1gene]), KIN-19 (CF3649: N2; muIs 209[pmyo-3::kin-19::tagrfp+ptph-1::GFP] and RHO-1 (DCD13: N2; uqIs9 [pmyo-2::rho-1::tagr fp+ptph-1::gfp]). Each were analysed as below, except DCD13 were maintained at 20° C.
The animals were exposed to lipoic acid in liquid culture in a 96 well plate starting from larval stage L4 in a total volume of 50 μl S-Complete per well (100 mM NaCl, 50 mM Potassium phosphate pH 6, 10 mM potassium citrate, 3 mM MgSO4, 3 mM CaCl2), 5 μg/mL cholesterol, 50 μM ethylenediaminetetraacetic acid (EDTA), 25 μM FeSO4, 10 μM MnCl2, 10 μM ZnSO4, 1 μM CuSO4) supplemented with heat-killed OP50 and 50 μg/ml carbenicillin. […] Toxicity was evaluated from the number of dead or aberrantly small-sized animals.
48 h after switching the L4s from 20° C. to 25° C. […] After immobilization with 2 mM levamisole aggregation was scored using a fluorescent stereo microscope (Leica M165 FC, Plan Apo 2.0× objective). […]

[1] = molecular target: T1, FUS low complexity domain (residues 1 to 163) (Homo sapiens, UniProt P35637); assay: 1H-15N HSQC NMR of FUS low complexity domain with compound; type: binding; conditions: 500 μM compound
T1 construct: untagged FUS low complexity domain (residues 1 to 163) expressed, purified and analysed; made in house
T1 sequence (P35637 1-163): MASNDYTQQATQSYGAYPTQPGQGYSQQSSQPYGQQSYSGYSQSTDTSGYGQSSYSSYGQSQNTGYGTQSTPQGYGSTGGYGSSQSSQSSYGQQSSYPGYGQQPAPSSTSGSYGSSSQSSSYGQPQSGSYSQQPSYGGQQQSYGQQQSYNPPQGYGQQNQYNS
Procedure: Finally, mechanistic detail was analyzed at the sub-molecular level by using NMR of the FUS prion-like N-terminal LCD to determine putative sites of lipoamide interaction. The LCD is able to phase separate to form condensates in vitro and the individual residues can be resolved and assigned in a ^1H-^15N heteronuclear single quantum coherence spectrum. ^1H-^15N analyses reveal a change in environment of individual residues as indicated by their corresponding chemical shifts. The magnitude of chemical shift changes were compared with and without both lipoamide or mitoxantrone. […] This leaves several possibilities: Perhaps lipoamide interacts with the FUS LCD only when phase separated, potentially reducing viscosity, or interacts with the condensate phase boundary, perhaps increasing surface tension. Such interactions may reduce formation or expansion of aggregated forms of FUS involved in condensate hardening and reduced liquidity.
For analysis of compound interaction with FUS untagged FUS low complexity domain (residues 1 to 163) expressed, purified and analysed using ^1H-^15N heteronuclear single quantum coherence NMR and sample conditions previously described^14 in the presence of 500 μM compound or equivalent DMSO solvent control (1%).

FUS eGFP condensate = molecular target: T2, FUS eGFP condensate (Homo sapiens, UniProt P35637); assay: Optical tweezers fusion assay of FUS condensate liquidity; type: biochemical
T2 sequence (P35637 1-526): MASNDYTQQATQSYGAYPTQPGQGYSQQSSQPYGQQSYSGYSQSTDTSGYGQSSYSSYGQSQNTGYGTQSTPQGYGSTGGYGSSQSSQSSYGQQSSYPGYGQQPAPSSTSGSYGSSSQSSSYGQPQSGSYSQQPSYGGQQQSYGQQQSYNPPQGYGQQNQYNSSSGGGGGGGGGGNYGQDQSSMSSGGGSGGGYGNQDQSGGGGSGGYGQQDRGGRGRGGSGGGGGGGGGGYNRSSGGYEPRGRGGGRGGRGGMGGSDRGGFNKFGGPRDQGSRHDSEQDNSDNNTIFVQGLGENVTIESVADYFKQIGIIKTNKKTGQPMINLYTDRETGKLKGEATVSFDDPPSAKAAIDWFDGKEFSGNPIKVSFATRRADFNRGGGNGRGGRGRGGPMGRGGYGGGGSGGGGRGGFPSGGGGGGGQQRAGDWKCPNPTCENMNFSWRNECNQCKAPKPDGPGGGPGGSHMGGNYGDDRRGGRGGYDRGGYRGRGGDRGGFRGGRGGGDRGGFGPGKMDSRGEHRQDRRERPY
Procedure: FIG. 5A) Schematic illustrating the quantitation of condensate droplet liquidity using optical tweezers. Two droplets are brought into contact and begin to fuse the time taken to relax to a single spherical droplet (once adjusted for droplet size) is a measure of the viscosity to surface tension ratio of the droplet—a measure of liquidity. Representative of two independent replicates. FIG. 5B) Droplet size-corrected relaxation times for droplet fusions with either 300 μM lipoamide or equivalent DMSO solvent control (0.3%). Box represents the 25th, 50th and 75th percentiles, whiskers represent 5th and 95th percentiles. […] FIGS. 5C-5E) Effect of 10 μM lipoamide on G156E FUS GFP condensates (formed under dextran crowding) on ‘aging’ while shaking, relative to an equivalent DMSO solvent control (0.1%). These conditions match those previously published^7. FIG. 5C) Representative images after 30 h aging, showing fibre formation in the DMSO sample. FIG. 5D) Representative fluorescence recovery after photobleaching (FRAP) time series of FUS condensates and fibres during aging. FIG. 5E) Quantitation of FRAP in FIG. 5C). Error bars represent standard deviation. […] Both compounds delay fibre formation.
Lipoamide effect on FUS eGFP condensate liquidity (surface tension and viscosity) was determined. Here, condensate droplets were brought together by optical tweezers and the rate of fusion and relaxation to a sphere was measured (FIG. 5A).

O=C(O)CCCCC1CCSS1 (racemic) [lipoic acid, 5-(1,2-dithiolan-3-yl)pentanoic acid] was tested, and the KIN-19 aggregation (KIN-19) was “mild decrease”.

For NC(=O)CCCCC1CCSS1 (racemic) [lipoamide, 5-(1,2-dithiolan-3-yl)pentanamide], the “chemical shift changes of FUS LCD residues” value [1] was “no single, clear sites of interaction”, the “droplet size-corrected relaxation (fusion) time” value (FUS eGFP condensate; 300 μM lipoamide vs 0.3% DMSO) was “reduces fusion time” and the “FUS eGFP condensate liquidity” value (FUS eGFP condensate; rate of fusion and relaxation to a sphere) was “increased the liquidity by a factor of three”. The “concentration required for an effect on condensate liquidity in vitro” value (FUS eGFP condensate; with 1 μM FUS) was roughly 100 µM.
